Assay in all cases: DTP human tumour cell line panel, 48 h
The subject of assay [1] is A549.
Assay [2] relates to BT-549.
In assay [3] the test system is CAKI-1.
Assay [4] deals with HCC 2998.
For assay [5], the system named is HCT-116.
Assay [6] concerns HOP-62.
Assay [7] deals with LOX IMVI.
Assay [8] relates to MDA-MB-231.
For assay [9], the system named is MDA-MB-435.
The test system of assay [10] is Malme-3M.
In assay [11] the test system is NCI-H23.
Assay [12] has as its system NCI/ADR-RES.
Assay [13] deals with OVCAR-3.
The subject of assay [14] is OVCAR-5.
Assay [15] concerns OVCAR-8.
In assay [16] the test system is SF-539.
The test system of assay [17] is SK-MEL-28.
The test system of assay [18] is SK-OV-3.
Assay [19] concerns T47D.
The test system of assay [20] is U-251.

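Cultured in 96-well plates, cells were exposed to test compound for 48 hours across five concentrations. GI50: concentration for 50% inhibition of growth.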 The source made the active and inactive calls. No stated cut-off is given here; in the data, active = GI50 up to about 1.1 µM and inactive = higher.

Consider `O=C(O)CCC1(C(=O)O)CCC(=O)c2ccccc21` (stereo not given), for which the GI50 in assay [1], in assay [2], in assay [3], in assay [4], in [5] and in assay [6] was > 100 µM (inactive) in each case. For the same molecule, the GI50 in assay [7], in assay [8], in [9], in [10], in [11] and in assay [12] was > 100 µM (inactive) throughout. Besides, the GI50 in [13], in [14], in assay [15], in [16], in assay [17] and in [18] was > 100 µM (inactive) each time. Also, the GI50 in assay [19] and in assay [20] was > 100 µM (inactive) each time.
Regarding `COc1cc2cc(C(=O)N3CC(CCl)c4c3cc(NC(=O)C(C)Nc3c([N+](=O)[O-])cc(C(=O)NCCN(C)C)cc3[N+](=O)[O-])c3ccccc43)[nH]c2c(OC)c1OC` (stereo not given), the GI50 in assay [1] is 0.0682 µM (active); in [2], 0.187 µM (active); in [3], 0.22 µM (active); in [4] it was 0.0315 µM (active); in assay [5], 0.0743 µM (active); in [6], 0.0619 µM (active). For the same molecule, the GI50 in assay [7] is 0.0478 µM (active); in assay [8], 0.18 µM (active); in [9], 0.16 µM (active); in assay [10], 0.129 µM (active); in assay [11] it was < 0.01 µM (active); in assay [12], 0.441 µM (active). Moreover, the concentration for 50% growth inhibition (GI50) in [13] was 0.201 µM (active); in assay [14] it was 0.0555 µM (active); in assay [15], 0.132 µM (active); in [16], 0.0331 µM (active); in [17], 0.123 µM (active); in assay [18] it was 0.21 µM (active). For the same molecule, the GI50 in [19] was 0.046 µM (active); in assay [20], 0.0178 µM (active).
`Cn1c(=O)nc2n(CCO)c(-c3ccccc3)c(-c3ccccc3)nc-2c1=O`: the GI50 in [1], in assay [2], in assay [3], in [4], in [5] and in assay [6] was > 100 µM (inactive) each time. Besides, the GI50 in [7], in assay [8], in assay [9], in assay [10], in assay [11] and in [12] was > 100 µM (inactive) in each case. Also, the GI50 in assay [13], in [14], in assay [15], in assay [16], in assay [17] and in assay [18] was > 100 µM (inactive) in each case. Besides, the GI50 in assay [19] and in assay [20] was > 100 µM (inactive) in each case.

The values above are taken from ChEMBL document CHEMBL1201862, “PubChem BioAssay data set” (2004).
